Where two headings read alike, the source gives them in different places.
What was measured:
[1] = molecular target: T1, JAK1 (Homo sapiens, UniProt P23458); assay: Lance Ultra Kinase Assay, recombinant JAK1; format: biochemical; settings: 5 mM ATP
T1 construct: purchased Carna Biosciences
Protocol: (§1) Recombinant JAK1, JAK2, JAK3 and TYK2 purchased from Carna Biosciences. The inhibition potency of compounds against JAK1, JAK2, JAK3 and TYK2 was assessed using Lance Ultra Kinase Assay.
(§2) In brief, recombinant kinases were pre-incubated in the presence or absence of compound at room temperature for 15 minutes. The reaction was initiated by the addition of 5 mM ATP and substrate peptide which could be phosphorylated by kinases in the reaction. After 60 minutes incubation, the reaction was stopped by the addition of the detection reagent mix containing EDTA. The fluorescence was measured at 615 nm and 665 nm, respectively with excitation wavelength at 320 nm. The calculated signal ratio of 665 nm/615 nm is proportional to the kinase activity.

[2] = molecular target: T2, JAK2 (Homo sapiens, UniProt O60674); assay: Lance Ultra Kinase Assay, recombinant JAK2; format: biochemical; settings: 5 mM ATP
T2 construct: purchased Carna Biosciences
Protocol: as §1, §2

[3] = molecular target: T3, TYK2 (Homo sapiens, UniProt P29597); assay: Lance Ultra Kinase Assay, recombinant TYK2; format: biochemical; settings: 5 mM ATP
T3 construct: purchased Carna Biosciences
Protocol: as §1, §2

[4] = tested on: phosphorylation of STAT6; assay: Cellular p-STAT6 assay, IL-13 stimulated THP-1 cells, flow cytometry; format: cell-based; settings: IL-13 10 ng/ml, read-out: pSTAT6 IC50
Protocol: To detect phosphorylated STAT6 (pSTAT6), THP-1 cells were harvested by centrifugation at 250 g for 5 min and resuspended in assay medium (RPMI1640+10% FBS) to 2×10^5 cells/well. Test compounds were applied to assay plates in serial dilution from 1 μM to 0.3 nM in DMSO. THP-1 cells were incubated with serial diluted compounds for 60 min at room temperature, followed by stimulation of interleukin (IL-13, 10 ng/ml) for 30 min, fixed in Cytofix buffer (BD Biosciences), and permeabilized in 90% methanol on ice. PE anti-pSTAT6 (BD Biosciences) antibodies were stained for 60 min at room temperature before being analyzed by flow cytometry. In the assay the compounds were thus diluted and dose-response curves for inhibition of the signal determine the IC50 for the compounds.

[5] = molecular target: T4, JAK3 (Homo sapiens, UniProt P52333); assay: Lance Ultra Kinase Assay, recombinant JAK3; format: biochemical; settings: 5 mM ATP
T4 construct: purchased Carna Biosciences
T4 sequence (P52333 1-1124): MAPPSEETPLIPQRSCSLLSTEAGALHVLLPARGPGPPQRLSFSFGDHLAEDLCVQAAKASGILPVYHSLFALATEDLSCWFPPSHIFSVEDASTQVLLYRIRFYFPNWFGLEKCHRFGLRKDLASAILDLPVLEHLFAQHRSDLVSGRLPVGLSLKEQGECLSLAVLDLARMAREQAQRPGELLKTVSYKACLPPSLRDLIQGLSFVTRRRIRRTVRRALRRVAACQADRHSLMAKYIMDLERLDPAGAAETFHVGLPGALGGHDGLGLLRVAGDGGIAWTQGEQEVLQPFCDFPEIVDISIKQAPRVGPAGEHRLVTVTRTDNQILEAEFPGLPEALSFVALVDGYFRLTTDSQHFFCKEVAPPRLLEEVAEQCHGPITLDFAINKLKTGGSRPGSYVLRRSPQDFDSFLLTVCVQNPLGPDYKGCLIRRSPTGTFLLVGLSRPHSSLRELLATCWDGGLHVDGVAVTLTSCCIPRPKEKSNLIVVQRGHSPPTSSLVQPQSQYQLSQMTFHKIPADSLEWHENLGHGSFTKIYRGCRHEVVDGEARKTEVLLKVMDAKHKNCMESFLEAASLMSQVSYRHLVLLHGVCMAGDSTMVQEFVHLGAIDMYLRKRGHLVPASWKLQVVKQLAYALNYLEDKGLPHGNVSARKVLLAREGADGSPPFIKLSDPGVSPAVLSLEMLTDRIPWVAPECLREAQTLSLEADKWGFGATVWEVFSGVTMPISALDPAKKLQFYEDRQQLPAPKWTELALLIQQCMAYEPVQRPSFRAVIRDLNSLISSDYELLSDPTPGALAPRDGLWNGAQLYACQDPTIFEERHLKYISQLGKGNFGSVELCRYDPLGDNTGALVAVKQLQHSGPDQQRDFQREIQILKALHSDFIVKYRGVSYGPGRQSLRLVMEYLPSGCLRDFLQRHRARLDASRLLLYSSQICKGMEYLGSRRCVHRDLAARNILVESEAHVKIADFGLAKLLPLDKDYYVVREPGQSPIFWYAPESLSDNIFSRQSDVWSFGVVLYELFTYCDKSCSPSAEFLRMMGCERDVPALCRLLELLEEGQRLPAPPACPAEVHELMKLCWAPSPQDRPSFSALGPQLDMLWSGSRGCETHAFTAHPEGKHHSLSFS
Protocol: as §1, §2

[6] = Homo sapiens, THP-1, THP-1 cells

T3 sequence (P29597 whole entry): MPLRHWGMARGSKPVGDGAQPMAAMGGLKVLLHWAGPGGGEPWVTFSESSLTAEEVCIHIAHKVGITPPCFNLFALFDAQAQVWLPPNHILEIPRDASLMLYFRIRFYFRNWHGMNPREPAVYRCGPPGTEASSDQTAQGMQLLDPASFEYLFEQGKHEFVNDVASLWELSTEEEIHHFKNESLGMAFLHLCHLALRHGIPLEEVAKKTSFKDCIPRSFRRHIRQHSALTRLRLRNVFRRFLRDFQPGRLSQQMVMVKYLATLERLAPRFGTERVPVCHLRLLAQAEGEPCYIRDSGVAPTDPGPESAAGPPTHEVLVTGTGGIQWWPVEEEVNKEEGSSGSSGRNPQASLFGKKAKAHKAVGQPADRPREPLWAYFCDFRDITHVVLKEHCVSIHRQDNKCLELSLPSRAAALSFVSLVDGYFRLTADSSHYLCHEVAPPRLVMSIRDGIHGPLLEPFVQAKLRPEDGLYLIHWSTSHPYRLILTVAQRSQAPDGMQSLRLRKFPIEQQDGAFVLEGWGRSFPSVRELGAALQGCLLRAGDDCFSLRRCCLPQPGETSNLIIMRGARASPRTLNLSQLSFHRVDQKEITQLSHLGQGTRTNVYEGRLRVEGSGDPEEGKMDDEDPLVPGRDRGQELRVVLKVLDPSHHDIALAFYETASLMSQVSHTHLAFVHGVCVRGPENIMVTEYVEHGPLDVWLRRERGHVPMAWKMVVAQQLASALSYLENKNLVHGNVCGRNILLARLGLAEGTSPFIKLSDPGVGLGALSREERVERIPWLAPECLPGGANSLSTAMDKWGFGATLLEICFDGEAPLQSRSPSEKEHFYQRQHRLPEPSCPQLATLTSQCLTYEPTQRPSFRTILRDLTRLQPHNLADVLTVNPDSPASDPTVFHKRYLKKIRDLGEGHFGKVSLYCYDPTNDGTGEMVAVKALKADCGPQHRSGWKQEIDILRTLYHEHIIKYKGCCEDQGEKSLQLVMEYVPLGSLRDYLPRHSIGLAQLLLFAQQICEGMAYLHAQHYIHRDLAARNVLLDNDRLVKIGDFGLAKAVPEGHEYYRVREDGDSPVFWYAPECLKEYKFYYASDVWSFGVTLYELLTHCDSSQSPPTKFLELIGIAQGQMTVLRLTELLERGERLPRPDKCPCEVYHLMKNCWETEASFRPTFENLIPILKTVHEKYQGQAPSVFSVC
T2 sequence (O60674 whole entry): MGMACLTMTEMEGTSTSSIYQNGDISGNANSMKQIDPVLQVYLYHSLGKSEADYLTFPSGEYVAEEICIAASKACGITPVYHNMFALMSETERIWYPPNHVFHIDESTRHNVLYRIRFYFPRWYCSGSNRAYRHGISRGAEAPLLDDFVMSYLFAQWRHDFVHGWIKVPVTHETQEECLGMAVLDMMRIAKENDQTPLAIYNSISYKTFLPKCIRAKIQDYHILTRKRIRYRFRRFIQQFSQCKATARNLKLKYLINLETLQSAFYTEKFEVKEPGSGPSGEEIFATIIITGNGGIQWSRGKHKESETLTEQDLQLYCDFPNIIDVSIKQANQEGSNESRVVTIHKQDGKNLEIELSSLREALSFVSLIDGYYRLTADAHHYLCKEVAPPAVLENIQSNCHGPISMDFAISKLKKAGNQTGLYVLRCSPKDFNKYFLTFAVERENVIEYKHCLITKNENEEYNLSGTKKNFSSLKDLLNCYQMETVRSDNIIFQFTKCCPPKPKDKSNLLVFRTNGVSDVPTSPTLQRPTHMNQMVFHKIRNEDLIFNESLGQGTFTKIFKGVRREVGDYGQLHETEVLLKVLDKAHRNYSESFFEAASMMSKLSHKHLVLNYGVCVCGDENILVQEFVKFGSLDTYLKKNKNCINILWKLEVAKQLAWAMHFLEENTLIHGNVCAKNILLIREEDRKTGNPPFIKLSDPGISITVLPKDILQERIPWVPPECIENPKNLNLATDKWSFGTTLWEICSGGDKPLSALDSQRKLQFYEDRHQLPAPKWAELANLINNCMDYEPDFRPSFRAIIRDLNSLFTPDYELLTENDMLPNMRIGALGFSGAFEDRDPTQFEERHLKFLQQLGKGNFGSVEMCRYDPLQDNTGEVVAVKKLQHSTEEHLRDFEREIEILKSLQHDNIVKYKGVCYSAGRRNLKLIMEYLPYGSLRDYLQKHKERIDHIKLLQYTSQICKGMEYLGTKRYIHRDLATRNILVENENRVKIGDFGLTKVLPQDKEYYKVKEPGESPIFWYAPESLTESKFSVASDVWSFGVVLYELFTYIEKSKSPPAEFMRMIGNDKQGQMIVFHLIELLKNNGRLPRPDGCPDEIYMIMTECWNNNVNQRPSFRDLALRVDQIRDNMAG
T1 sequence (P23458 whole entry): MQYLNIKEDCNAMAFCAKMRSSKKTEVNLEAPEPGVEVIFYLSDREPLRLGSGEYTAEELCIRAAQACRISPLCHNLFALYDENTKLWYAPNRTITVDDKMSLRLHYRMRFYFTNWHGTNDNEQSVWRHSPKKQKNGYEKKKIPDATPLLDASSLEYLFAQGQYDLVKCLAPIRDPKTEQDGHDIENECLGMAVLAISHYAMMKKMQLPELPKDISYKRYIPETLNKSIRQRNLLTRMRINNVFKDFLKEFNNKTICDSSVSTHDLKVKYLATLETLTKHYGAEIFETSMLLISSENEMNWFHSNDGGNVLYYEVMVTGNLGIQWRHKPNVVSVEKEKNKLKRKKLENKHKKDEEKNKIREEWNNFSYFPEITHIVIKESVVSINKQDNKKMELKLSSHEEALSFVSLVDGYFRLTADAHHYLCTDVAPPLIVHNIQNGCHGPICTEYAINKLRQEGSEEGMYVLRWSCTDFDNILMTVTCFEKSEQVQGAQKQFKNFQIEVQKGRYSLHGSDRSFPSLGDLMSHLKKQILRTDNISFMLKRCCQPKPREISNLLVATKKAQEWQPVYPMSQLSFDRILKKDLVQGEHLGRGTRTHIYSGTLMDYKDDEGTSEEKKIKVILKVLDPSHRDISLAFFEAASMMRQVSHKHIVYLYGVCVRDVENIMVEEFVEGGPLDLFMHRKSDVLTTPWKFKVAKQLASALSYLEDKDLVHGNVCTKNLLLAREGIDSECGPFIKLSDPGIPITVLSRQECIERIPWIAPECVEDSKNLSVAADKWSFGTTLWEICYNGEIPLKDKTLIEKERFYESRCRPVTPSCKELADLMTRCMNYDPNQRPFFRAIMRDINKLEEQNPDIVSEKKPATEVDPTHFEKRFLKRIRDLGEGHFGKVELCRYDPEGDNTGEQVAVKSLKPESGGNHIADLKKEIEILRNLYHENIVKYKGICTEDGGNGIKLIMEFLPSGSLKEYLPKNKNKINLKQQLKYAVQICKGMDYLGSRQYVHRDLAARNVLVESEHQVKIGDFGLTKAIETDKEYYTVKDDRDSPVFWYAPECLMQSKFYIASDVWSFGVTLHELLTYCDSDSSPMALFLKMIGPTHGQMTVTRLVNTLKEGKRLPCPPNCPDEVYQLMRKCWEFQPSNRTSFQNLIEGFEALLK

Structure (SMILES)	IC50 [1] [nM]	IC50 [2] [nM]	IC50 [3] [nM]	IC50 [4, 6] [nM]	IC50 [5] [nM]	IC50 ([4]; THP-1 cells) [nM]
COCCOc1ccc(Nc2ncc(F)c(-c3c[nH]c4c(NC(=O)[C@@H](COC)N5CCN(C)CC5)cccc34)n2)cn1 [Example 65, (R)-N-(3-(5-fluoro-2-((6-(2-methoxyethoxy)pyridin-3-yl)amino)pyrimidin-4-yl)-1H-indol-7-yl)-3-methoxy-2-(4-methylpiperazin-1-yl)propanamide]	0.32	198	1260	18.8	> 10000	
COC[C@H](C(=O)Nc1cccc2c(-c3nc(Nc4ccc5[nH]ccc5c4)ncc3F)c[nH]c12)N1CCN(C)CC1 [Example 41, (R)-N-(3-(2-((1H-indol-5-yl)amino)-5-fluoropyrimidin-4-yl)-1H-indol-7-yl)-3-methoxy-2-(4-methylpiperazin-1-yl)propanamide]	0.22	110	1430	12.6	> 10000	
COC[C@H](C(=O)Nc1cccc2c(-c3nc(Nc4cnn(-c5ccccc5C(=O)OC)c4)ncc3F)c[nH]c12)N1CCN(C)CC1 [Example 6, methyl (R)-2-(4-((5-fluoro-4-(7-(3-methoxy-2-(4-methylpiperazin-1-yl)propanamido)-1H-indol-3-yl)pyrimidin-2-yl)amino)-1H-pyrazol-1-yl)benzoate]	0.42	452	4660	6	> 10000	
COC[C@H](C(=O)Nc1cccc2c(-c3nc(Nc4cncc(CCCO)c4)ncc3F)c[nH]c12)N1CCN(C)CC1 [Example 25, (R)-N-(3-(5-fluoro-2-((5-(3-hydroxypropyl)pyridin-3-yl)amino)pyrimidin-4-yl)-1H-indol-7-yl)-3-methoxy-2-(4-methylpiperazin-1-yl)propanamide]	0.2	9	273	8.9	> 10000	
CNC(=O)Cc1ccc(Nc2ncc(F)c(-c3c[nH]c4c(NC(=O)[C@@H](COC)N5CCN(C)CC5)cccc34)n2)cn1 [Example 39, (R)-N-(3-(5-fluoro-2-((6-(2-(methylamino)-2-oxoethyl)pyridin-3-yl)amino)pyrimidin-4-yl)-1H-indol-7-yl)-3-methoxy-2-(4-methylpiperazin-1-yl)propanamide]	0.23	316	974	11.9	> 10000	
COC[C@H](C(=O)Nc1cccc2c(-c3nc(Nc4ccc5ocnc5c4)ncc3F)c[nH]c12)N1CCN(C)CC1 [Example 51, (R)-N-(3-(2-(benzo[d]oxazol-5-ylamino)-5-fluoropyrimidin-4-yl)-1H-indol-7-yl)-3-methoxy-2-(4-methylpiperazin-1-yl)propanamide]	0.23	186	1400	14.9	> 10000	
COC[C@H](C(=O)Nc1cccc2c(-c3nc(Nc4cnc(CO)c(OC)c4)ncc3F)c[nH]c12)N1CCN(C)CC1 [Example 34, (R)-N-(3-(5-fluoro-2-((6-(hydroxymethyl)-5-methoxypyridin-3-yl)amino)pyrimidin-4-yl)-1H-indol-7-yl)-3-methoxy-2-(4-methylpiperazin-1-yl)propanamide]	0.18	12	447	11.3	> 10000	
COC[C@H](C(=O)Nc1cccc2c(-c3nc(Nc4cnc(C)c(C(=O)OC)c4)ncc3F)c[nH]c12)N1CCN(C)CC1 [Example 7, methyl (R)-5-((5-fluoro-4-(7-(3-methoxy-2-(4-methylpiperazin-1-yl)propanamido)-1H-indol-3-yl)pyrimidin-2-yl)amino)-2-methylnicotinate]	0.21	58	634	6.2	> 10000	
CNC(=O)COc1cncc(Nc2ncc(F)c(-c3c[nH]c4c(NC(=O)[C@@H](COC)N5CCN(C)CC5)cccc34)n2)c1 [Example 68, (R)-N-(3-(5-fluoro-2-((5-(2-(methylamino)-2-oxoethoxy)pyridin-3-yl)amino)pyrimidin-4-yl)-1H-indol-7-yl)-3-methoxy-2-(4-methylpiperazin-1-yl)propanamide]	0.22	71	1230	20.9	5360	
COC[C@H](C(=O)Nc1cccc2c(-c3nc(Nc4cnc(CO)c(C)c4)ncc3F)c[nH]c12)N1CCN(C)CC1 [Example 3, (R)-N-(3-(5-fluoro-2-((6-(hydroxymethyl)-5-methylpyridin-3-yl)amino)pyrimidin-4-yl)-1H-indol-7-yl)-3-methoxy-2-(4-methylpiperazin-1-yl)propanamide]	0.19	4	156	4.5	7700	
COC[C@H](C(=O)Nc1cccc2c(-c3nc(Nc4ccc(C(C)O)nc4)ncc3F)c[nH]c12)N1CCN(C)CC1 (single isomer, unassigned; isomer 2) [Example 9]	0.25	20	330	6.5	9950	
COC[C@H](C(=O)Nc1cccc2c(-c3nc(Nc4ccc5c(C(=O)OC)n[nH]c5c4)ncc3F)c[nH]c12)N1CCN(C)CC1 [Example 44, methyl (R)-6-((5-fluoro-4-(7-(3-methoxy-2-(4-methylpiperazin-1-yl)propanamido)-1H-indol-3-yl)pyrimidin-2-yl)amino)-1H-indazole-3-carboxylate]	0.27	147	> 10000	13.2	> 10000	
COC[C@H](C(=O)Nc1cccc2c(-c3nc(Nc4ccc(OCc5ncco5)nc4)ncc3F)c[nH]c12)N1CCN(C)CC1 [Example 54, (R)-N-(3-(5-fluoro-2-((6-(oxazol-2-ylmethoxy)pyridin-3-yl)amino)pyrimidin-4-yl)-1H-indol-7-yl)-3-methoxy-2-(4-methylpiperazin-1-yl)propanamide]	0.86	219	4880	15.3	> 10000	
COC[C@H](C(=O)Nc1cccc2c(-c3nc(Nc4ccc(C(C)O)nc4)ncc3F)c[nH]c12)N1CCN(C)CC1 (single isomer, unassigned; isomer 1) [Example 29, 5-fluoro-2-((6-(1-hydroxyethyl)pyridin-3-yl)amino)pyrimidin-4-yl)-1H-indol-7-yl)-3-methoxy-2-(4-methylpiperazin-1-yl)propanamide (isomer 1)]	0.31	74	939		> 10000	9.8
COC[C@H](C(=O)Nc1cccc2c(-c3nc(Nc4ccc5c(CO)ncn5c4)ncc3F)c[nH]c12)N1CCN(C)CC1 [Example 46, (R)-N-(3-(5-fluoro-2-((1-(hydroxymethyl)imidazo[1,5-a]pyridin-6-yl)amino)pyrimidin-4-yl)-1H-indol-7-yl)-3-methoxy-2-(4-methylpiperazin-1-yl)propanainide]	1.52	322	> 10000	13.5	> 10000	

Source: patent US12606544B2, “JAK1 selective kinase inhibitor” (DIZAL (JIANGSU) PHARMACEUTICAL CO., LTD., priority 2019, dated 2026)
